Like-named read-outs stand apart in the source and are kept apart here.
Key:
[1] = system: human prostate adenocarcinoma PC3 cells; experiment: Growth inhibition test (MTS) on PC3 cells; format: cell-based; conditions: Homo sapiens, PC-3, 72 hours, read-out: PC-3 ED50
[2] = system: human hepatoma HepG2 cells; experiment: Growth inhibition test (MTS) on HepG2 cells; format: cell-based; conditions: 72 hours, read-out: HepG2 ED50
Method in brief: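 HepG2 cells in DMEM with 10% FCS were exposed for 72 h at 37 °C, 5% CO2, to 0.1, 0.5, 1, 2.5, 5 and 10 micromol/L compound. MTS was then added for 2 h and absorbance read at 490 nm. % viability was calculated relative to untreated cells set at 100%.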

PIM-1 = PIM-1 (Homo sapiens (Human), UniProt P11309); experiment: Luminometric kinase assay for PIM1 kinase (Kinase-Glo); format: biochemical; conditions: 1 μM ATP, 25 min at RT
Chain of PIM-1 (P11309 whole entry): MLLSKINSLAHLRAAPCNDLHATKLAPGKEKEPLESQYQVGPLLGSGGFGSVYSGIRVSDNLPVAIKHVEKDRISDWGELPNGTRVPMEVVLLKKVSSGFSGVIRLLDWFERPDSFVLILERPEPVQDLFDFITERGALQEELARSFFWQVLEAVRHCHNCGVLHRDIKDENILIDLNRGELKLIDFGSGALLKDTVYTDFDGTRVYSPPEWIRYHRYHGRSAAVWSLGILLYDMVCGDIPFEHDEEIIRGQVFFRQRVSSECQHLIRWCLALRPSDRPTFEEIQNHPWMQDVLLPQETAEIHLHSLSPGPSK
Method in brief: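 Kinase and substrate reacted in 8 mM MOPS/NaOH pH7.0, 0.2 mM EDTA, 2 mM MgCl2 with 1 μM ATP for 25 min at RT, compounds serially diluted from 1 μM. Remaining ATP read by Kinase-Glo luminescence; IC50 from variable-slope sigmoidal fit.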

[3] = system: human erytroblast leukemia HEL-92.1.7 cells; experiment: Growth inhibition test (MTS) on HEL-92.1.7 cells; format: cell-based; conditions: 72 hours, read-out: HEL92 ED50
Procedure: (§1) Ten thousand cells of human erytroblast leukemia HEL-92.1.7 were inoculated into each well of a 96-well microplate (manufactured by Corning Corp.) using RPMI 1640 medium (culture medium) containing 10% fetal calf serum (FCS). Next day, a dimethyl sulfoxide (DMSO) solution of each test compound prepared in a concentration of 10 mmol/L was further diluted with culture medium to the desired concentrations (0.1, 0.5, 1, 2.5, 5 and 10 micromol/L), and the diluted solution was added to each well. The individual wells were further cultured in 5% carbon dioxide at 37° C. for 72 hours. After completion of the culture, 10 μl MTS (3-(4,5-Dimethyl-2-thiazolyl)-5-(carboxymethoxyphenyl)-2-(4-sulfophenyl)-2H-tetrazolium, inner salt assay (CellTiter96® AQueous One Solution Cell Proliferation Assay, Promega) was added to each well, and culturing was performed in 5% carbon dioxide at 37° C. for 2 hours. Using a microplate spectrophotometer (Synergy 2 multi-mode microplate reader (BioTek)), the absorbance of each well was measured at 490 nm. The value for cells not incorporated with a test compound was designated as 100%. By comparing these values with the absorbance difference obtained at the well in which each test compound was added, the cell viability (% viability) after treatment with the test compound was calculated.

[4] = system: human breast adenocarcinoma MCF7 cells; experiment: Growth inhibition test (MTS) on MCF7 cells; format: cell-based; conditions: read-out: MCF-7 ED50
Method in brief: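 MCF7 cells seeded in DMEM with 10% FCS, dosed next day at 0.1–10 micromol/L (diluted from 10 mmol/L DMSO stock) and cultured 72 h at 37° C, 5% CO2. MTS added for 2 h, absorbance read at 490 nm; % viability calculated relative to untreated cells as 100%.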

[5] = system: human myelomonocytic, biphenotypic leukemia MV4-11 cells; experiment: Growth inhibition test (MTS) on MV4-11 cells; format: cell-based; conditions: Homo sapiens, MV4-11, 72 hours, read-out: MV-4-11 ED50
Method in brief: MV4-

[6] = system: human colorectal adenocarcinoma SW480 cells; experiment: Growth inhibition test (MTS) on SW480 cells; format: cell-based; conditions: read-out: SW480 ED50
Procedure: as §1, with “Two” for “Ten”, “colorectal adenocarcinoma SW480” for “erytroblast leukemia HEL-92.1.7”, “Corp.), and” for “Corp.)”, “DMEM/Ham's F121:1” for “RPMI 1640”, “5%” for “10%”

[7] = system: human chronic myelocytic leukemia K562 cells; experiment: Growth inhibition test (MTS) on K562 cells; format: cell-based; conditions: 72 hours, read-out: K562 ED50
Procedure: as §1, with “chronic myelocytic” for “erytroblast”, “K562” for “HEL-92.1.7”, “Iscove's MDM” for “RPMI 1640”

[8] = system: human acute lymphocytic leukemia E6.1 Jurkat cells; experiment: Growth inhibition test (MTS) on E6.1 Jurkat cells; format: cell-based; conditions: 72 hours, read-out: Jurkat ED50
Procedure: as §1, with “Twenty” for “Ten”, “acute lumphocytic” for “erytroblast”, “E6.1 Jurkat” for “HEL-92.1.7”, “[…]” for “1640”

Row | Compound | IC50 [1] [µM] | IC50 [2] [µM] | IC50 (PIM-1) [µM] | IC50 [3] [µM] | IC50 ([4]; Homo sapiens, MCF7, 72 hours) [µM] | IC50 [5] [µM] | IC50 ([4]; 72 hours) [µM] | IC50 ([6]; 72 hours) [µM] | IC50 [7] [µM] | IC50 [8] [µM] | IC50 ([6]; Homo sapiens, SW480, 72 hours) [µM]
1 | N[C@H]1CCCC[C@H]1Nc1nc2c(Br)c(Br)c(Br)c(Br)c2[nH]1 (relative stereo) [Compound 304cis, cis N1-(4,5,6,7-tetrabromo-1H-benzo[d]imidazol-2-yl)cyclohexane-1,2-diamine] | 1.47 | 1.34 | 0.0069 | 1.82 | 0.7 | 0.33 |  |  |  |  | 
2 | Brc1c(Br)c(Br)c2[nH]c(NCCN3CCCCC3)nc2c1Br [Compound 13, 4,5,6,7-tetrabromo-N-(2-(piperidin-1-yl)ethyl)-1H-benzo[d]imidazol-2-amine] | 3.86 | 2.54 | 0.319 |  |  |  | 3.65 | 1.08 | 3.72 |  | 
3 | Brc1c(Br)c(Br)c2[nH]c(NCCN3CCCC3)nc2c1Br [Compound 14, 4,5,6,7-tetrabromo-N-(2-(pyrrolidin-1-yl)ethyl)-1H-benzo[d]imidazol-2-amine] | 3.96 | 2.12 | 0.0578 |  |  |  | 7.76 | 1.53 | 3.59 |  | 
4 | CN1CCN(c2nc3c(Br)c(Br)c(Br)c(Br)c3[nH]2)CC1 [Compound 21, 4,5,6,7-tetrabromo-2-(4-methylpiperazin-1-yl)-1H-benzo[d]imidazole] |  | 6.32 | 0.0419 |  |  |  |  | 5.98 | 7.99 |  | 
5 | Brc1c(Br)c(Br)c2[nH]c(NCCCn3ccnc3)nc2c1Br [Compound 65, N-(3-(1H-imidazol-1-yl)propyl)-4,5,6,7-tetrabromo-1H-benzo[d]imidazol-2-amine] | 7.45 |  | 0.0227 | 8.37 | 8.22 | 3.46 |  | 6.92 |  |  | 
6 | N[C@H]1CCCC[C@@H]1Nc1nc2c(Br)c(Br)c(Br)c(Br)c2[nH]1 [Compound 304SS, (1S,2S)-N1-(4,5,6,7-tetrabromo-1H-benzo[d]imidazol-2-yl)cyclohexane-1,2-diamine] | 5.17 | 3.21 | 0.0116 |  | 5.03 | 0.98 |  |  |  | 5.07 | 
7 | COc1ccc(Nc2nc3c(Br)c(Br)c(Br)c(Br)c3[nH]2)cc1OC [Compound 307, 4,5,6,7-tetrabromo-N-(3,4-dimethoxyphenyl)-1H-benzo[d]imidazol-2-amine] | 8.31 | 1.23 | 0.287 |  | 9.43 | 6.03 |  |  |  | 8.97 | 
8 | Nc1ccccc1Nc1nc2c(Br)c(Br)c(Br)c(Br)c2[nH]1 [Compound 332, N1-(4,5,6,7-tetrabromo-1H-benzo[d]imidazol-2-yl)benzene-1,2-diamine] | 7.51 | 6.59 | 0.0162 | 3.15 |  | 3.27 |  |  |  |  | 
9 | Nc1cc(F)c(F)cc1Nc1nc2c(Br)c(Br)c(Br)c(Br)c2[nH]1 [Compound 333, N1-(4,5,6,7-tetrabromo-1H-benzo[d]imidazol-2-yl)-4,5-difluorobenzene-1,2-diamine] | 2.49 | 4.52 | 0.0485 | 3.25 | 4.76 | 3.86 |  |  |  |  | 
10 | NCc1cccc(CNc2nc3c(Br)c(Br)c(Br)c(Br)c3[nH]2)c1 [Compound 354, N-(3-(aminomethyl)benzyl)-4,5,6,7-tetrabromo-1H-benzo[d]imidazol-2-amine] | 8.59 | 2.61 | 0.108 | 6.93 | 3.09 | 4.47 |  |  |  |  | 
11 | CNCCCN(Cc1ccccc1)c1nc2c(Br)c(Br)c(Br)c(Br)c2[nH]1 [Compound 372, N-benzyl-4,5,6,7-tetrabromo-N-(3-(methylamino)propyl)-1H-benzo[d]imidazol-2-amine] | 2.4 | 1.32 | 0.0452 | 3.98 | 2.54 | 1.65 |  |  |  |  | 
12 | CCOC(=O)N1CCN(c2nc3c(Br)c(Br)c(Br)c(Br)c3[nH]2)CC1 [Compound 376, ethyl 4-(4,5,6,7-tetrabromo-1H-benzo[d]imidazol-2-yl)piperazine-1-carboxylate] | 6.61 | 9.4 |  | 7.93 |  | 5.17 |  |  |  |  | 
13 | CCOC(=O)N1CCN(c2nc3c(Br)c(Br)c(Br)c(Br)c3n2C(=O)OCC)CC1 [Compound 377, ethyl 2-(4-(ethoxycarbonyl)piperazin-1-yl)-4,5,6,7-tetrabromo-1H-benzo[d]imidazole-1-carboxylate] | 5.99 | 9.72 |  | 9.73 |  | 5.92 |  |  |  |  | 
14 | CN1CCN(C2CCN(c3nc4c(Br)c(Br)c(Br)c(Br)c4[nH]3)CC2)CC1 [Compound 385, 4,5,6,7-tetrabromo-2-(4-(4-methylpiperazin-1-yl)piperidin-1-yl)-1H-benzo[d]imidazole] | 6.88 | 3.76 | 0.0453 | 2.21 | 5.8 | 4.57 |  |  |  |  | 
15 | Cc1nc2ccccn2c1CN1CCN(c2nc3c(Br)c(Br)c(Br)c(Br)c3[nH]2)CC1 [Compound 414, 4,5,6,7-tetrabromo-2-(4-((2-methyl-1H-imidazo[1,2-a]pyridin-3-yl)methyl)piperazin-1-yl)-1H-benzo[d]imidazole] | 8.94 |  |  | 7.1 | 8.23 | 3.03 |  |  |  |  | 4.32

Reference: US8604217B2, “Compound, a process for its preparation, a pharmaceutical composition, use of a compound, a method for modulating or regulating serine/threonine kinases and a serine/threonine kinases modulating agent” (Selvita S.A., priority 2009, dated 2013)
